# Data: ChEMBL document CHEMBL1201862, “PubChem BioAssay data set” (2004)
#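 Where inhibition never reached the appropriate level, the endpoint shown equals the highest concentration tested. Otherwise, values were interpolated linearly from a five-concentration, 48-hour dose response in 96-well plates. GI50 = concentration required for 50% inhibition of growth.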 Active and inactive are the calls of the source. Cut-off read from the data, not from the text of the source: active = GI50 up to about 1.1 µM and inactive = higher.
# How the values were obtained:
# Assay in all cases: NCI tumour cell line growth inhibition, 48 h
# [1] = test system: 786-0
# [2] = test system: A498
# [3] = test system: A549
# [4] = test system: ACHN
# [5] = test system: BT-549
# [6] = test system: CAKI-1
# [7] = test system: CCRF-CEM
# [8] = test system: COLO 205
# [9] = test system: DU-145
# [10] = test system: EKVX
# [11] = test system: HCC 2998
# [12] = test system: HCT-116
# [13] = test system: HCT-15
# [14] = test system: HL-60
# [15] = test system: HOP-62
# [16] = test system: HOP-92
# [17] = test system: HT-29
# [18] = test system: Hs-578T
# [19] = test system: IGROV-1
# [20] = test system: K562
# [21] = test system: KM12
# [22] = test system: LOX IMVI
# [23] = test system: M14
# [24] = test system: MCF7
# [25] = test system: MDA-MB-231
# [26] = test system: MDA-MB-435
# [27] = test system: MDA-N
# [28] = test system: MOLT-4
# [29] = test system: Malme-3M
# [30] = test system: NCI-H226
# [31] = test system: NCI-H23
# [32] = test system: NCI-H460
# [33] = test system: NCI-H522
# [34] = test system: NCI/ADR-RES
# [35] = test system: OVCAR-3
# [36] = test system: OVCAR-4
# [37] = test system: OVCAR-5
# [38] = test system: OVCAR-8
# [39] = test system: PC-3
# [40] = test system: RPMI-8226
# [41] = test system: RXF 393
# [42] = test system: SF-268
# [43] = test system: SF-295
# [44] = test system: SF-539
# [45] = test system: SK-MEL-28
# [46] = test system: SK-MEL-2
# [47] = test system: SK-MEL-5
# [48] = test system: SK-OV-3
# [49] = test system: SN12C
# [50] = test system: SNB-19
# [51] = test system: SNB-75
# [52] = test system: SR
# [53] = test system: SW-620
# [54] = test system: T47D
# [55] = test system: TK-10
# [56] = test system: U-251
# [57] = test system: UACC-257
# [58] = test system: UACC-62
# [59] = test system: UO-31
structure (smiles),measurement,setting,value
O=C1C=CC(=O)C(CNc2ccc(C(=O)OCc3ccccc3)cc2)=C1,GI50,[1],3.33 µM (inactive)
same,GI50,[2],11.2 µM (inactive)
same,GI50,[3],14.5 µM (inactive)
same,GI50,[4],3.66 µM (inactive)
same,GI50,[5],2.56 µM (inactive)
same,GI50,[6],1.38 µM (inactive)
same,GI50,[7],0.661 µM (active)
same,GI50,[8],1.86 µM (inactive)
same,GI50,[9],12.2 µM (inactive)
same,GI50,[10],10.4 µM (inactive)
same,GI50,[11],16 µM (inactive)
same,GI50,[12],5.3 µM (inactive)
same,GI50,[13],2.59 µM
same,GI50,[14],1.08 µM (active)
same,GI50,[15],17.3 µM (inactive)
same,GI50,[16],1.76 µM (inactive)
same,GI50,[17],15.2 µM (inactive)
same,GI50,[18],6.12 µM (inactive)
same,GI50,[19],3.27 µM (inactive)
same,GI50,[20],2.62 µM (inactive)
same,GI50,[21],9.35 µM (inactive)
same,GI50,[22],4.14 µM (inactive)
same,GI50,[23],7.05 µM (inactive)
same,GI50,[24],4.57 µM (inactive)
same,GI50,[25],7.82 µM (inactive)
same,GI50,[26],5.06 µM (inactive)
same,GI50,[27],6.85 µM (inactive)
same,GI50,[28],2 µM (inactive)
same,GI50,[29],2.67 µM (inactive)
same,GI50,[30],12.3 µM (inactive)
same,GI50,[31],10.2 µM (inactive)
same,GI50,[32],16.9 µM (inactive)
same,GI50,[33],1.39 µM (inactive)
same,GI50,[34],4 µM (inactive)
same,GI50,[35],2.4 µM (inactive)
same,GI50,[36],3.81 µM (inactive)
same,GI50,[37],15.6 µM (inactive)
same,GI50,[38],3.98 µM (inactive)
same,GI50,[39],3.36 µM (inactive)
same,GI50,[40],1.47 µM (inactive)
same,GI50,[41],2.68 µM (inactive)
same,GI50,[42],6.4 µM (inactive)
same,GI50,[43],17.7 µM (inactive)
same,GI50,[44],2.72 µM (inactive)
same,GI50,[45],5.11 µM (inactive)
same,GI50,[46],14.9 µM (inactive)
same,GI50,[47],3.19 µM (inactive)
same,GI50,[48],12.6 µM (inactive)
same,GI50,[49],6.18 µM (inactive)
same,GI50,[50],13.4 µM (inactive)
same,GI50,[51],5.25 µM (inactive)
same,GI50,[52],1.29 µM (inactive)
same,GI50,[53],4.99 µM (inactive)
same,GI50,[54],1.77 µM (inactive)
same,GI50,[55],4.62 µM (inactive)
same,GI50,[56],6.24 µM (inactive)
same,GI50,[57],11.5 µM (inactive)
same,GI50,[58],8.97 µM (inactive)
same,GI50,[59],2.29 µM (inactive)
CC1=CC23C(COC(=O)C24CO4)C(C(=O)O)=CC3C1C (configuration not stated),GI50,[1],5.09 µM (inactive)
same,GI50,[2],23.3 µM (inactive)
same,GI50,[3],26.1 µM (inactive)
same,GI50,[4],27.4 µM (inactive)
same,GI50,[5],4.9 µM (inactive)
same,GI50,[6],9.79 µM (inactive)
same,GI50,[7],5.86 µM (inactive)
same,GI50,[8],24.7 µM (inactive)
same,GI50,[9],28.1 µM (inactive)
same,GI50,[10],40.4 µM (inactive)
same,GI50,[11],15.4 µM (inactive)
same,GI50,[12],16 µM (inactive)
same,GI50,[13],24.5 µM
same,GI50,[14],15 µM (inactive)
same,GI50,[15],14.1 µM (inactive)
same,GI50,[16],8.24 µM (inactive)
same,GI50,[17],16.2 µM (inactive)
same,GI50,[18],2.78 µM (inactive)
same,GI50,[19],24.1 µM (inactive)
same,GI50,[20],4.85 µM (inactive)
same,GI50,[21],6.73 µM (inactive)
same,GI50,[22],17 µM (inactive)
same,GI50,[23],7.55 µM (inactive)
same,GI50,[24],35.6 µM (inactive)
same,GI50,[25],10.9 µM (inactive)
same,GI50,[26],23.1 µM (inactive)
same,GI50,[27],24 µM (inactive)
same,GI50,[28],17.4 µM (inactive)
same,GI50,[29],6 µM (inactive)
same,GI50,[30],15.6 µM (inactive)
same,GI50,[31],27.1 µM (inactive)
same,GI50,[32],18.2 µM (inactive)
same,GI50,[33],1.37 µM (inactive)
same,GI50,[34],15.3 µM (inactive)
same,GI50,[35],32.3 µM (inactive)
same,GI50,[36],15.2 µM (inactive)
same,GI50,[37],24.4 µM (inactive)
same,GI50,[38],15.9 µM (inactive)
same,GI50,[39],11.9 µM (inactive)
same,GI50,[40],2.37 µM (inactive)
same,GI50,[41],3.55 µM (inactive)
same,GI50,[42],4.93 µM (inactive)
same,GI50,[43],24.3 µM (inactive)
same,GI50,[44],15 µM (inactive)
same,GI50,[45],2.3 µM (inactive)
same,GI50,[46],3.08 µM (inactive)
same,GI50,[47],25.2 µM (inactive)
same,GI50,[48],4.65 µM (inactive)
same,GI50,[49],3.32 µM (inactive)
same,GI50,[50],5.33 µM (inactive)
same,GI50,[51],17.7 µM (inactive)
same,GI50,[52],17.1 µM (inactive)
same,GI50,[53],18.2 µM (inactive)
same,GI50,[54],6.21 µM (inactive)
same,GI50,[55],21.2 µM (inactive)
same,GI50,[56],11.5 µM (inactive)
same,GI50,[57],29 µM (inactive)
same,GI50,[58],12.8 µM (inactive)
same,GI50,[59],27.3 µM (inactive)
COC(=O)C1Cc2ccc(O)c(O)c2CN1 (configuration not stated),GI50,[1],17.5 µM (inactive)
same,GI50,[2],> 100 µM (inactive)
same,GI50,[3],> 100 µM (inactive)
same,GI50,[4],> 100 µM (inactive)
same,GI50,[5],18.3 µM (inactive)
same,GI50,[6],> 100 µM (inactive)
same,GI50,[7],35 µM (inactive)
same,GI50,[8],> 100 µM (inactive)
same,GI50,[9],30.7 µM (inactive)
same,GI50,[10],> 100 µM (inactive)
same,GI50,[11],> 100 µM (inactive)
same,GI50,[12],23.7 µM (inactive)
same,GI50,[13],29.7 µM
same,GI50,[14],25.8 µM (inactive)
same,GI50,[15],> 100 µM (inactive)
same,GI50,[16],26.4 µM (inactive)
same,GI50,[17],23.3 µM (inactive)
same,GI50,[18],25.4 µM (inactive)
same,GI50,[19],35.8 µM (inactive)
same,GI50,[20],28.8 µM (inactive)
same,GI50,[21],69.3 µM (inactive)
same,GI50,[22],14.8 µM (inactive)
same,GI50,[23],16.2 µM (inactive)
same,GI50,[24],17.1 µM (inactive)
same,GI50,[25],19.8 µM (inactive)
same,GI50,[26],16.7 µM (inactive)
same,GI50,[27],16.4 µM (inactive)
same,GI50,[28],25.1 µM (inactive)
same,GI50,[29],32.1 µM (inactive)
same,GI50,[30],> 100 µM (inactive)
same,GI50,[31],16.6 µM (inactive)
same,GI50,[32],56.9 µM (inactive)
same,GI50,[33],> 100 µM (inactive)
same,GI50,[34],22.1 µM (inactive)
same,GI50,[35],35.5 µM (inactive)
same,GI50,[36],19.3 µM (inactive)
same,GI50,[37],27.5 µM (inactive)
same,GI50,[38],> 10 µM (inactive)
same,GI50,[39],26.1 µM (inactive)
same,GI50,[40],24.2 µM (inactive)
same,GI50,[41],> 100 µM (inactive)
same,GI50,[42],> 10 µM (inactive)
same,GI50,[43],7.41 µM (inactive)
same,GI50,[44],18.4 µM (inactive)
same,GI50,[45],17.3 µM (inactive)
same,GI50,[46],16.7 µM (inactive)
same,GI50,[47],15.1 µM (inactive)
same,GI50,[48],> 100 µM (inactive)
same,GI50,[49],16.4 µM (inactive)
same,GI50,[50],38.3 µM (inactive)
same,GI50,[51],19.5 µM (inactive)
same,GI50,[52],29.1 µM (inactive)
same,GI50,[53],21.3 µM (inactive)
same,GI50,[54],71.9 µM (inactive)
same,GI50,[55],> 100 µM (inactive)
same,GI50,[56],17.4 µM (inactive)
same,GI50,[57],15.5 µM (inactive)
same,GI50,[58],19.7 µM (inactive)
same,GI50,[59],22.5 µM (inactive)
